The conditions of the data set: maltodextrin-coated vitamin tablet sealed approximately one week with sorbent pad loaded with approximately 200 mg 2-butanol; ingested; breath at approximately 10 minutes after ingestion. On the procedure:
Referring to FIG. 3, a vitamin tablet was dipped into a maltodextrin/water solution and the tablet was allowed to dry. A tiny sorbent pad loaded with approximately 200 mg of 2-butanol was added to the bottom of a tiny plastic vial to simulate a blister cavity. The dry coated tablet was then added to the vial and sealed via a screw top. After approximately one week, the vial was opened and the tablet was ingested by an individual.

For the compound `CCC(C)O` (stereo not shown) [2-butanol], the “2-butanone, a metabolite of 2-butanol, detected in the individual's breath” value is recorded as “significant quantity”.
